Tests used:
[1] = system: dopaminergic neurons in mouse striatum; experiment: 6-OHDA in mice, 3H-mazindol binding in striatal homogenates; format: in vivo; conditions: C7 4×66 mg/kg; 6-OHDA 50 μg i.c.v.
Protocol: 6-OHDA in mice. Adult male CFW mice were anesthetized with ketamine and rumpun, and immobilized in a stereotaxic device. 6-OHDA, as the hydrobromide salt, was dissolved in normal saline with 1% ascorbate, and 50 μg was administered in lateral ventricle by means of a 10 μl Hamilton syringe. […] Animals were sacrificed 7 days later, and neuronal pathology was assessed by measuring ^3H-mazindol binding in striatal homogenates.

[2] = cited from earlier work
[3] = system: Human dermal fibroblasts (HF cells); experiment: Protection against t-butyl hydroperoxide toxicity in human fibroblasts (XTT); format: cell-based; conditions: 80 μM with 0.5 mM t-BHP
Protocol: Human dermal fibroblasts (HF cells) were obtained from the American type tissue Culture Collection at passage 1 and cultured and propagated in a medium (HF medium) consisting of Dulbecco's Modified Eagle's Medium with 4.5 g/l D-glucose, 10% calf serum 4 mM glutamine, 50 units/ml penicillin, and 50 μg/ml streptomycin in a 37° C. humidified incubator equilibrated with 5% CO2. Cells were used at passages 5 or 6 for experiments. For cell protection assays, HF cells were seeded at a density of about 15,000 cells per cm2 onto 96-well culture plates and allowed to grow to confluence. […] After 2 hr., the absorbance at 490 nm was measured in a BioRad (Richmond, Calif.) Model 3550 plate-reader, using a reference wavelength of 655 nm. […] Absorbance measurements for blank wells, containing HF medium and XTT reagent but no cells, were also determined. […] Fresh HF medium was then added and cell viability assessed using the XTT reagent as described above. […]
Cell protection assays were performed as described under Experimental Procedures with salen-manganese complexes administered at the indicated concentrations and t-BHP at 0.5 mM. Cell viability was assessed using the XTT reagent as described and is expressed as the absorbance at 490 nm uncorrected for blank. […]

Hippocampal slices = experiment: Anoxia in hippocampal slices, EPSP recovery; format: cell-based, Sprague-Dawley rats; conditions: C7 50 μM
From the text: Anoxia in hippocampal slices. […] A glass recording micropipet was positioned in CA1 stratum radiatum to record excitatory postsynaptic potential (EPSPs) generated by electrical stimulation of the Schaffer-commissural pathway by a bipolar stimulation electrode at a frequency of 0.033 Hz. During anoxic episodes, the oxygen supply was replaced with 100% N2 gas. N2 was supplied for 90 seconds following electrical silence after which O2 was reintroduced. Recovery of EPSPs (both slope and amplitude) was recorded for 50 minutes, at which time the final viability of the slices was determined, with viability being defined as the ability of the slice to generate a 3 mV EPSP.

[4] = Peroxidase activity toward t-BHP, ABTS oxidation; format: biochemical; conditions: 1 mM t-BHP versus same concentration of H2O2
Protocol: Peroxidase activity was assayed by monitoring the hydrogen peroxide-dependent oxidation of 2,2′-azino-bis(3-ethylbenzthiazoline-6) sulfonic acid (ABTS) spectrophotometrically. Standard assay mixtures consisted of 50 mM sodium phosphate, pH 8.1, 0.9% sodium chloride, 0.5 mM ABTS, and H2O2 and salen manganese complex as indicated. Where indicated, 50 mM sodium phosphate buffers of pH 6.0 or pH 7.1 were substituted. Assays were conducted at 27±0.2° C. ABTS oxidation was monitored at 740 or 500 nm to eliminate interference by the salen manganese complexes, many of which absorb in the vicinity of the λmax of oxidized ABTS, and to avoid absorbance values that exceeded the linear range of the spectrophotometer. The amount of oxidized ABTS was estimated using an Δε740 of 20,300 M^−1cm^−1 or an Δε500 of 3400 M^−1cm^−1 calculated based upon the published molar extinction coefficient oat 405 nm (36,800).
(In comparison, horseradish peroxidase utilized t-BHP with an ABTS oxidation rate that was about 5.4% of the rate with H2O2).

neurons = experiment: Amyloid peptide toxicity in neurons in vitro; format: cell-based
[5] = system: dopaminergic neurons in mouse brain; experiment: MPTP animal model of Parkinson's disease, mazindol binding
Protocol: This model is now widely accepted in the art and is used for evaluating potential therapeutic agents for this disease.
Tritiated mazindol was used for binding studies on samples of the globus pallidus, caudate nucleus, and striatum of mouse brain according to conventional methods; specific binding of tritiated mazindol was determined autoradiographically or by membrane binding (specific binding to the membrane fraction). The experiment was performed over a 7 day period. Mice in the MPTP group were treated […] with MPTP alone (40 mg/kg each day on days 1 and 2). […] The animals were sacrificed after 7 days.
MPTP in mice. Adult male CFW mice (25-33 g) were administered two injections of MPTP dissolved in normal saline (40 mg/kg, s.c.) 24 hours apart. […] Animals were sacrificed 7 days after the first MPTP injection, and neuronal pathology was assessed by the binding of ^3H-mazindol, a ligand for the dopamine transporter, to […] frozen brain sections or to striatal homogenates.

[Cl][Mn]1[O]c2ccccc2C=NCCN=Cc2ccccc2[O]1 [Compound C7]
effect on 6-OHDA-induced decrease in mazindol binding, contralateral striatum [1]: complete protection | effect on 6-OHDA-induced decrease in mazindol binding, ipsilateral striatum [1]: significant reduction | SOD activity previously found [2]: about 769 units/mM | reduced viability at 80 μM relative to 40 μM together with t-BHP [3]: possible synergistic toxicity with t-BHP | protection against anoxia-induced decrease in synaptic response in CA1 (EPSP slope and amplitude) (Hippocampal slices): significant degree of protection | ABTS oxidation rate with t-BHP as percent of the rate with H2O2 [4]: about 0.5% | protection of neurons against amyloid peptide toxicity (neurons): protect neurons against amyloid peptide toxicity | number of surviving dopaminergic neurons in mice treated with MPTP ([5]; C7 33 mg/kg i.p. days 1-3, MPTP 40 mg/kg days 1 and 2, versus MPTP alone): approximately doubled | protection against the reduction in 3H-mazindol binding ([5]; C7 3×33 mg/kg, i.p., MPTP 2×40 mg/kg, s.c.): significant (p<0.05) degree of protection | protection against the reduction in 3H-mazindol binding measured in striatal homogenates ([5]; C7 3×33 mg/kg, i.p., MPTP 2×40 mg/kg, s.c., panel B): significant protection | number of dopaminergic neurons in regions of the mouse brain, compound alone ([5]; C7 alone, no MPTP): not adversely affected

— US6900198B2, “Synthetic catalytic free radical scavengers useful as antioxidants for prevention and therapy of disease” (Eukarion, Inc., priority 1995, dated 2005)
